Experimental data: patent US20150216823A1, “COMPOSITIONS FOR THE TREATMENT OF MIGRAINE HEADACHES AND METHODS THEREOF” (priority 2012, published 2015)
Like-named read-outs stand apart in the source and are kept apart here. One block for each compound: values may come before it.

Assays:
[1] = cited from earlier work
[2] = Capsaicin solubilization experiments with varying Tween 80, visual assessment; type: physicochemical; conditions: capsaicin at 0.05-0.055% concentration
Excerpt: Therefore, it was decided to evaluate the use of the concentrated capsaicin (a white powder) as a replacement for the oily oleoresin capsicum extract. However, as capsaicin powder is hydrophobic it was necessary to determine what quantity of surfactant was necessary to maintain the capsaicin in solution. A study was therefore conducted to determine the required concentration of a chosen surfactant (Tween 80) to achieve and maintain complete dissolution of the capsaicin (assuming a capsaicin concentration of 0.054% w/v). In other words, the level of surfactant required for dissolving the capsaicin in an aqueous vehicle was determined as described below.
A series of experiments were undertaken to prepare various samples with the addition of a set quantity of capsaicin powder (equivalent to 0.05% in solution) and varying concentrations of Tween 80.
Sample 1: 1% Tween 80 was prepared according to the following protocol: […]; Tween 80; […]; and 10 mL stock solution. The sample was sonicated for 2 minutes and then visually assessed. […]
Sample 2: 0.5% Tween 80 was prepared according to the following protocol: […] Tween 80; 0.011 g capsaicin; and 10 mL stock solution. The sample was sonicated for 2 minutes and then visually assessed. […]
All samples were left overnight and visually assessed again on the following day. […]

SMILES: CCC(=O)O[C@]1(C(=O)SCF)[C@H](C)C[C@H]2[C@@H]3C[C@H](F)C4=CC(=O)C=C[C@]4(C)[C@@]3(F)[C@@H](O)C[C@@]21C [fluticasone propionate]
- bio-availability of the nasal spray formulation relative to the nasal drop formulation ([1]; intranasal administration): about eight times higher

- required concentration of Tween 80 in the stock solution to achieve complete dissolution of capsaicin [2]: 0.5 % w/v
SMILES: COc1cc(CNC(=O)CCCC/C=C/C(C)C)ccc1O [capsaicin]

SMILES: NC(=O)CC[C@@H]1NC(=O)[C@H](Cc2ccccc2)NC(=O)[C@H](Cc2ccc(O)cc2)NC(=O)CCSSC[C@@H](C(=O)N2CCC[C@H]2C(=O)N[C@H](CCCN=C(N)N)C(=O)NCC(N)=O)NC(=O)[C@H](CC(N)=O)NC1=O [desmopressin]
- bio-availability of the nasal spray formulation relative to the nasal drop formulation ([1]; in vivo): two to three times higher
